# Source: patent US8871787B2, “Stable crystalline salt of (R)-3-fluorophenyl-3,4,5-trifluorobenzylcarbamic acid 1-azabicyclo [2.2.2]oct-3-yl ester” (Laboratorios Salvat, S.A., priority 2007, dated 2014)
# Tested on: not listed separately
# Assay: Salt screening of compound I with several acids (aspect of the salt)
# Format: physicochemical
# Conditions: free base and acid in hot ethanol, cooled, solvent evaporated
# Method: To select the most suitable salt of compound I and minimize the undesirable hygroscopic properties of the hydrochloride, several acids were tested. The free base of compound I was dissolved in hot ethanol, and then acid solution in hot ethanol was added. The mixture was then stirred and heated for 30 min. After cooling to room temperature, the solvent was removed by evaporation. […]
row,Molecule,Aspect of the salt
1,O=C(O)CC(O)C(=O)O.O=C(OC1CN2CCC1CC2)N(Cc1cc(F)c(F)c(F)c1)c1cccc(F)c1.O=C(OC1CN2CCC1CC2)N(Cc1cc(F)c(F)c(F)c1)c1cccc(F)c1 (racemic) [DL-Malic (0.5 eq)],Hygroscopic red foam
2,O=C(O)CC(=O)O [Malonic],Oil
3,O=C(O)C(O)c1ccccc1.O=C(OC1CN2CCC1CC2)N(Cc1cc(F)c(F)c(F)c1)c1cccc(F)c1 [(S)-Mandelic],Oil
4,O=C(O)CCC(=O)O [Succinic],Hygroscopic white foam
5,CC(O)C(=O)O.O=C(OC1CN2CCC1CC2)N(Cc1cc(F)c(F)c(F)c1)c1cccc(F)c1 (racemic) [DL-Lactic],Oil
6,O=C(O)CC(O)C(=O)O.O=C(OC1CN2CCC1CC2)N(Cc1cc(F)c(F)c(F)c1)c1cccc(F)c1.O=C(OC1CN2CCC1CC2)N(Cc1cc(F)c(F)c(F)c1)c1cccc(F)c1 [D-Malic (0.5 eq)],Hygroscopic red foam
7,O=C(O)CC(O)C(=O)O.O=C(OC1CN2CCC1CC2)N(Cc1cc(F)c(F)c(F)c1)c1cccc(F)c1 [L-Malic],Oil
8,CC1(C)C2CCC1(CS(=O)(=O)O)C(=O)C2.O=C(OC1CN2CCC1CC2)N(Cc1cc(F)c(F)c(F)c1)c1cccc(F)c1 [(S)-10-Camphorsulfonic],Oil
9,CS(=O)(=O)O.O=C(OC1CN2CCC1CC2)N(Cc1cc(F)c(F)c(F)c1)c1cccc(F)c1 (stereo not shown) [Methanesulphonic],Oil
10,CC1(C)C2CCC1(CS(=O)(=O)O)C(=O)C2.O=C(OC1CN2CCC1CC2)N(Cc1cc(F)c(F)c(F)c1)c1cccc(F)c1 (racemic) [(RS)-10-Camphorsulfonic],Hygroscopic pink foam
11,O=C(O)CC(O)C(=O)O.O=C(OC1CN2CCC1CC2)N(Cc1cc(F)c(F)c(F)c1)c1cccc(F)c1 [D-Malic],Hygroscopic red foam
12,CC=CC=CC(=O)O.O=C(OC1CN2CCC1CC2)N(Cc1cc(F)c(F)c(F)c1)c1cccc(F)c1 (stereo not shown) [Sorbic],Oil
13,O=C(O)C(O)C(O)C(=O)O.O=C(OC1CN2CCC1CC2)N(Cc1cc(F)c(F)c(F)c1)c1cccc(F)c1.O=C(OC1CN2CCC1CC2)N(Cc1cc(F)c(F)c(F)c1)c1cccc(F)c1 [D-Tartaric (0.5 eq)],White solid crystal precipitated in EtOH.
14,Citric,Oil
15,O=C(O)CC(O)C(=O)O.O=C(OC1CN2CCC1CC2)N(Cc1cc(F)c(F)c(F)c1)c1cccc(F)c1 (racemic) [DL-Malic],Hygroscopic red foam
16,O=C(O)C(=O)O.O=C(OC1CN2CCC1CC2)N(Cc1cc(F)c(F)c(F)c1)c1cccc(F)c1 (stereo not shown) [Oxalic],Hygroscopic white foam
17,O=C(O)C(O)c1ccccc1.O=C(OC1CN2CCC1CC2)N(Cc1cc(F)c(F)c(F)c1)c1cccc(F)c1 (stereo not shown) [Mandelic],White foam
18,O=C(O)C=CC(=O)O.O=C(OC1CN2CCC1CC2)N(Cc1cc(F)c(F)c(F)c1)c1cccc(F)c1.O=C(OC1CN2CCC1CC2)N(Cc1cc(F)c(F)c(F)c1)c1cccc(F)c1 (stereo not shown) [Fumaric (0.5 eq)],White foam
19,O=C(OC1CN2CCC1CC2)N(Cc1cc(F)c(F)c(F)c1)c1cccc(F)c1.O=S(=O)(O)c1ccccc1 (stereo not shown) [Benzenesulphonic],Oil
20,O=C(O)C(O)C(O)C(=O)O.O=C(OC1CN2CCC1CC2)N(Cc1cc(F)c(F)c(F)c1)c1cccc(F)c1.O=C(OC1CN2CCC1CC2)N(Cc1cc(F)c(F)c(F)c1)c1cccc(F)c1 [L-Tartaric (0.5 eq)],White foam
21,O=C(OC1CN2CCC1CC2)N(Cc1cc(F)c(F)c(F)c1)c1cccc(F)c1.O=C1OC(C(O)CO)C(O)=C1O (stereo not drawn) [L(+)-Ascorbic],White foam
22,O=C(O)C(O)C(O)C(=O)O.O=C(OC1CN2CCC1CC2)N(Cc1cc(F)c(F)c(F)c1)c1cccc(F)c1 (racemic),Adding MTBE precipitated a white solid
23,O=C(O)C=CC(=O)O.O=C(OC1CN2CCC1CC2)N(Cc1cc(F)c(F)c(F)c1)c1cccc(F)c1 (stereo not shown) [Maleic],Oil
24,L-Tartaric,White foam
25,Propionic,Hygroscopic white foam
26,O=C(O)CC(O)C(=O)O.O=C(OC1CN2CCC1CC2)N(Cc1cc(F)c(F)c(F)c1)c1cccc(F)c1.O=C(OC1CN2CCC1CC2)N(Cc1cc(F)c(F)c(F)c1)c1cccc(F)c1 [L-Malic (0.5 eq)],Oil
27,Fumaric,White foam

# Tested on: patients suffering from Overactive Bladder syndrome
# Assay: Phase II clinical trial: pharmacodynamics in overactive bladder patients (urodynamic assessments, tolerability)
# Conditions: 4 mg o.d., 4 weeks
# Method: A pharmacodynamic study of tarafenacin tartrate in patients suffering from Overactive Bladder syndrome was performed to obtain first efficacy and tolerability data in this population.
# The study was randomised, double-blind, placebo and active-controlled. Patients received tarafenacin tartrate at the dose of 0.1 or 0.2 mg, tolterodine 4 mg or placebo o.d. during 4 weeks, just after a 2 week single-blind wash-out period in which all patients received placebo. Urodynamic assessments were performed at baseline and after 4 weeks administration.
# It was planned to screen approximately 100 patients and randomize 77 patients, to obtain outcome data on 63 patients. Patients who entered the study were randomized into the four treatment groups during the double blind treatment period.
# After a Screening visit and a 14 day washout single blind period (placebo run in), patients were randomized to one of the four treatment arms by a 2:2:2:1 randomization schedule. In a single blind period, only the patients were blinded. During the treatment period, each patient received tarafenacin tartrate 0.1 mg/tarafenacin tartrate 0.2 mg/tolterodine (ER) 4 mg/placebo. Identical capsules were used to maintain the study blind.
# The end of study procedures were performed at the Day 28 visit (End of Treatment [EOT]). A study follow up was conducted at Day 35 either telephonically or the patient was called to the clinic (End of Study [EOS]).
# The primary endpoint was the pharmacodynamic endpoints and they were assessed as the mean change from baseline to Day 28 in urodynamic, salivary flow, and accommodation near point pharmacodynamic assessments.
row,Molecule,incidence of treatment emergent adverse events
1,"Cc1ccc(O)c([C@H](CCN(C(C)C)C(C)C)c2ccccc2)c1 [tolterodine, reference compound]",36%

# Same assay, conditions: human, in vivo
Molecule,increase in infused volume,increase in volume at first desire to void,increase in volume at strong desire to void
"Cc1ccc(O)c([C@H](CCN(C(C)C)C(C)C)c2ccccc2)c1 [tolterodine, reference compound]",20 mL,33 mL,42 mL
